Source: PMC11606974, “Stereoselective chemical N-glycoconjugation of amines via CO2 incorporation” (Nature Communications, 2024)

Columns and labels:
[1] = test system: SNU-5 cells; experiment: Cell viability assay (CCK-8, 72 h); conditions: Homo sapiens, SNU-5, 72 h, read-out: SNU-5 IC50 (growth inhibition)
[2] = test system: SK-MEL-28 cells; experiment: Cell viability assay (CCK-8, 72 h); conditions: Homo sapiens, SK-MEL-28, 72 h, read-out: SK-MEL-28 IC50 (growth inhibition)
[3] = test system: HEK-293T cells; experiment: Cell viability assay (CCK-8, 72 h); conditions: Homo sapiens, read-out: HEK-293T IC50 (growth inhibition)
[4] = target: ALK (kinase domain, 1068–1410) (Homo sapiens, UniProt Q9UM73); experiment: Enzymatic inhibition assay, ATP hydrolysis (Kinase-Glo luminescent kit)
Sequence of ALK (kinase domain, 1068–1410) (Q9UM73 1068-1410): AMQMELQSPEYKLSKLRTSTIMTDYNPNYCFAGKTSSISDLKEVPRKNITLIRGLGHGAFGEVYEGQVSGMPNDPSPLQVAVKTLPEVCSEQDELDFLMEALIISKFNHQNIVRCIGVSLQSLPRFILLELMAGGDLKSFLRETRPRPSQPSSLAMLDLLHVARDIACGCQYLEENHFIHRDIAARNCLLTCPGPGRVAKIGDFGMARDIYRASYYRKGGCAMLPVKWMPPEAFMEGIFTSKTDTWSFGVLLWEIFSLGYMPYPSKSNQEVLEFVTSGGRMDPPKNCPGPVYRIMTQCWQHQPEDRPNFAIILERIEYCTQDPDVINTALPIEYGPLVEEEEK

[5] = test system: cancer cells; parameters: method as in PMID 25184545; conditions: compared with deglycoBLM (6); cited from earlier work
[6] = Pharmacokinetic analysis of crizotinib glucosides after oral gavage, plasma LC/MS/MS; format: in vivo, male C57 mice
[7] = mouse, plasma, oral GA95 91.6 mg/kg, male C57 mice, analyte Glycolcrizotinib

Row | SMILES | IC50 [1] | IC50 [2] | IC50 [3] | IC50 [4] | cytotoxic activity [5] | half-life ([6]; mouse, plasma, oral GA95 91.6 mg/kg, male C57 mice, analyte GA95) | AUC(0-inf) [6, 7] | AUC(0-t) [6, 7] | Cmax [6, 7] | MRT [6, 7] | Tmax [6, 7] | plasma concentration of crizotinib after oral application of the glucoside ([6]; oral GA95, male C57 mice, compared with the crizotinib group)
1 | C[C@@H](Oc1cc(-c2cnn(C3CCNCC3)c2)cnc1N)c1c(Cl)ccc(F)c1Cl [Crizotinib, reference compound] | 0.015 µM | 6 µM | 6 µM |  |  |  |  |  |  |  |  | 
2 | CC(=O)OC[C@H]1O[C@@H](OC(=O)N2CCC(n3cc(-c4cnc(N)c(O[C@H](C)c5c(Cl)ccc(F)c5Cl)c4)cn3)CC2)[C@H](OC(C)=O)[C@@H](OC(C)=O)[C@@H]1OC(C)=O [GA89] | 0.045 µM | 5 µM | 5 µM | 1.1 µM |  |  |  |  |  |  |  | 
3 | Cc1c(N)nc([C@H](CC(N)=O)NC[C@H](N)C(N)=O)nc1C(=O)N[C@H](C(=O)N[C@H](C)[C@@H](O)[C@H](C)C(=O)N[C@H](C(=O)NCCc1nc(-c2nc(C(=O)NCCCNCCCCNC(=O)OC3O[C@@H](CO)[C@@H](O)[C@H](O)[C@@H]3O[C@H]3O[C@H](CO)[C@@H](O)[C@H](OC(N)=O)[C@@H]3O)cs2)cs1)[C@@H](C)O)[C@@H](O)c1c[nH]cn1 (stereo partly shown) [compound 5] |  |  |  |  | significantly more potent cytotoxic activity than deglycoBLM (6) |  |  |  |  |  |  | 
4 | C[C@@H](Oc1cc(-c2cnn(C3CCN(C(=O)O[C@@H]4O[C@H](CO)[C@@H](O)[C@H](O)[C@H]4O)CC3)c2)cnc1N)c1c(Cl)ccc(F)c1Cl [GA95] | 0.022 µM | 25 µM | 25 µM | 0.3 µM |  | 43.6 min | 0.0426 µg·h/mL | 0.0376 µg·h/mL | 0.0336 µg/mL | 64.8 min | 15 min | quickly increased to the similar level as the crizotinib group
